≈ marks a conversion by molar mass, not a printed value.
Key:
[1] = system: K. pneumoniae; assay: time required for antibiotics to hinder metabolic activity (resazurin fluorescence); format: cell-based, Klebsiella pneumoniae; conditions: K. pneumoniae 1×10^5 cfu/μL, antibiotic 100 μg/mL, LB media, 1 mM resazurin, 37° C., FIG. 16
Procedure: In order to choose a suitable incubation period for the susceptibility test, the time required for the antibiotics to begin inhibiting bacterial metabolic activity was investigated. […] The increase in fluorescence induced by the conversion of resazurin by metabolically active bacteria was recorded.

[2] = system: K. pneumoniae; assay: on-chip electrochemical (resazurin) antibiotic susceptibility assay in undiluted urine; format: cell-based, Klebsiella pneumoniae; conditions: K. pneumoniae 100 cfu/μL in undiluted urine, 1 hour incubation at 37° C., FIG. 5D
Procedure: (§1) The performance of the example device for electrochemical detection in urine was investigated. Human urine (BioreclamationlVT) was centrifuged at 5000 g for 5 min to remove large particulates. E. coli and K. pneumoniae were diluted to 100 cfu/μL and spiked in the urine. Samples (200 μL) were introduced at 20 μL/min. […] Air was flushed through the device to form the wells followed by FC-40 (200 μL) (Sigma Aldrich, St. Louis, Mo.). Thus the total volume of all solutions introduced is 600 μL which requires 30 min to process at 20 μL/min. The device was incubated in a water bath at 37° C. for 1 hour. 10 minutes were required to scan the leads. Thus the total time for the assay from sample introduction to readout was 1 hour and 40 minutes.
(§2) Other studies were carried out to assess the suitability of the example device to rapidly determine the antibiotic resistance profile of bacteria in undiluted urine.
(§3) E. coli (UPEC) and K. pneumoniae present at 100 cfu/μL in undiluted urine were introduced into the example device. After capture, a culture medium, resazurin, and either ampicillin or ciprofloxacin were introduced. FIGS. 5C and 5D show the electrochemical signal obtained as a function of antibiotic concentration after a 1 hour incubation at 37° C.
(§4) As this strain produces a beta lactamase, resistance to ampicillin, a beta-lactam antibiotic is expected.

[3] = system: E. coli (UPEC); assay: as above; format: cell-based, Escherichia coli
Procedure: as §1, §2, §3
As this strain produces a beta lactamase, resistance to ampicillin, a beta-lactam antibiotic is expected. […]

[4] = system: E. coli; assay: standard microdilution assay with a 24 hour incubation; format: cell-based, Escherichia coli; conditions: absorbance at 600 nm, FIG. 5A
Procedure: (§5) An antibiotic susceptibility microdilution assay was also performed using the example device. […] After 24 hours, the absorbance at 600 nm was measured.
as §4

[5] = system: K. pneumoniae; assay: as above; format: cell-based, Klebsiella pneumoniae; conditions: FIG. 5B; for MIC90: Klebsiella pneumoniae, 24 hour incubation
Procedure: as §5, §4

[6] = system: E. coli; assay: on-chip electrochemical antibiotic susceptibility assay in unpurified urine; format: cell-based, Escherichia coli; conditions: E. coli 100 cfu/μL in undiluted unpurified urine, 10 μm pre-filter, 37° C. for 1 hour, FIG. 5E
Procedure: The performance of the example device was also investigated for electrochemical detection in unpurified urine. E. coli were diluted to 100 cfu/μL and spiked in the unpurified human urine (BioreclamationlVT). The spiked urine (200 μL) was passed through a 10 μm filter to remove large particulates and directly introduced at 20 μL/min into the chip. […] Air was flushed through the device to form the wells followed by FC-40 (Sigma Aldrich, St. Louis, Mo.). The device was incubated in a water bath at 37° C.
A series of experiments were also performed to determine the antibiotic susceptibility of bacteria in unpurified urine. […] Currents are normalized to the maximum value. Error bars represent standard error.
E. coli were spiked directly into undiluted and unpurified urine at 100 cfu/μL. The sample was passed through a 10 μm filter that removed large particulates while allowing bacteria to pass. FIG. 18 illustrates the effect of pre-filter size on recovery of bacteria spiked in undiluted urine. […] No appreciable signal change was found when using a blank control sample of unpurified urine (see FIG. 4, discussed above).

| SMILES | fluorescence signal (resazurin conversion) in presence of antibiotic [1] | electrochemical signal with increasing antibiotic concentration / susceptibility call [2] | effect on metabolism of E. coli (electrochemical scan) ([3]; 1 μg/mL antibiotic, E. coli in urine at 100 CFU/μL, 1 mM resazurin, 60 min at 37° C., FIG. 19B) | minimum antibiotic concentration that inhibits 90% of bacterial growth (MIC90) [4] | susceptibility call by standard microdilution assay [5] | MIC90 [5] | antibiotic concentration at which E. coli are susceptible (electrochemical signal) [6] | antibiotic concentration at which the bacteria are susceptible (electrochemical signal) ([3]; E. coli (UPEC) 100 cfu/μL in undiluted urine, 1 hour incubation at 37° C., FIG. 5C) |
| --- | --- | --- | --- | --- | --- | --- | --- | --- |
| CC1(C)S[C@@H]2[C@H](NC(=O)[C@H](N)c3ccccc3)C(=O)N2[C@H]1C(=O)O [ampicillin] | fluorescence increases | approximately constant | insufficient to inhibit the metabolism | 16 µg/mL | resistant | > 100 µg/mL |  |  |
| O=C(O)c1cn(C2CC2)c2cc(N3CCNCC3)c(F)cc2c1=O [ciprofloxacin] |  | susceptible |  | less than 0.1 μg/mL | susceptible | 2 µg/mL (≈ 6.04 µM) | ≥ 1 µg/mL | above 1 μg/mL |
